What was measured:
[1] = Encapsulation efficiency of lipid nanoparticles, Quant-It RiboGreen RNA Assay; format: physicochemical; conditions: lipid nanoparticle with the cationic lipid, luciferase mRNA
Procedure: (§1) Lipid nanoparticles were prepared by (1) dissolving and mixing ionizable lipid compounds, cholesterol, phospholipids and polyethylene glycolated lipids in ethanol at (molar percentages) 50%, 38.5%, 10% and 1.5%, respectively; (2) dissolving the mRNA active ingredient in 25 mM sodium acetate solution (pH=4.5); (3) using an automated high-throughput microfluidic system to mix the organic phase containing the lipid mixture and the aqueous phase containing the mRNA component in the flow ratio range of 1:1 to 1:4 at a mixing speed of 10 mL/min to 18 mL/min; (4) the prepared lipid nanoparticles (N/P ratio of 6) were diluted with phosphate buffer solution and the nanoparticle solutions were ultrafiltered to the original preparation volume using ultrafiltration tubes (purchased from Millipore) with a cut-off molecular weight of 30 kDa; and (5) the obtained nanoparticles were filtered through a sterile 0.2 μm filter membrane and then stored in a sealed glass vial at low temperature.
(§2) The particle size and particle size dispersity index (PDI) of the prepared lipid nanoparticles were measured using a Zetasizer Pro (purchased from Malvern Instruments Ltd) and a DynaPro NanoStar (purchased from Wyatt) dynamic light scattering instrument. The degree of RNA encapsulation by lipid nanoparticles was characterized by the Encapsulation Efficiency %, which reflects the degree of binding of lipid nanoparticles to RNA fragments. This parameter was measured by the method of Quant-It™ RiboGreen RNA Assay (purchased from Invitrogen). Lipid nanoparticle samples were diluted in TE buffer (10 mM Tris-HCl, 1 mM EDTA, pH=7.5). A portion of the sample solution was removed, to which 0.5% Triton (Triton X-100) was added, and then allowed to stand at 37° C. for 30 minutes. Immediately after the addition of RIBOGREEN® reaction solution, the fluorescence values were read on a Varioskan LUX multifunctional microplate reader (purchased from Thermofisher) at 485 nm for absorption and 528 nm for emission to give the encapsulation efficiency values.

[2] = test system: human embryonic kidney cells 293 (HEKi293T cells); assay: In vitro delivery of luciferase mRNA nanoparticles, luciferase expression (RLU); format: cell-based; conditions: HEK293T cells, LNP with luciferase mRNA, 24 h
Procedure: as §1
(§3) The delivery effect and safety of nanoparticles encapsulated with luciferase mRNA were evaluated at the cellular level in vitro. The cells used in the assay were human embryonic kidney cells 293 (HEKi293T cells) cultured in DMEM (Dulbecco's Modified Eagle Medium) (purchased from Thermo Fisher) containing […] fetal bovine serum and […] penicillin-streptomycin double antibiotics at a indoor temperature of 37° C. and a CO2 concentration of […]. The cells were uniformly dispersed and spread in 48-well plates, and incubated in the incubator for 24 h. Then a solution of the lipid nanoparticles encapsulated with luciferase mRNA were added. After 24 h, the cells were lysed, and the intracellular expression intensity and relative light units (RLU) of luciferase in each type of lipid nanoparticles were measured with a luciferase detection reagent (purchased from Promega). The higher the intensity of expression, the higher the delivery efficiency of the lipid material at the cellular level. Meanwhile, CCK-8 reagent (purchased from DOJINDO) was used in cytotoxicity testing for the parallel lipid nanoparticle-treated cell groups after 24 hours. In the test, the group of cells to which only PBS was added was used as a negative control. The procedure was as follows: after the addition of CCK-8 solution, the cells were left to stand in an incubator at 37° C. for 4 h. The absorbance values were read on a multifunctional microplate reader at an absorbance band of 450 nm. The ratio of the absorbance value of the nanoparticle-treated cells to that of the negative control was used as a characterization parameter for cell viability.

[3] = Particle size and PDI of lipid nanoparticles by dynamic light scattering; format: physicochemical; conditions: lipid nanoparticle with the cationic lipid, cholesterol, DSPC, DMG-PEG2000 (50/38.5/10/1.5 mol%), luciferase mRNA, N/P 6
Procedure: as §1, §2

[4] = test system: human embryonic kidney cells 293 (HEKi293T cells); assay: CCK-8 cytotoxicity testing of lipid nanoparticle-treated cells; format: cell-based; parameters: concentration or dose not given beside the values; conditions: HEK293T cells, LNP-treated 24 h, CCK-8, ratio to PBS negative control
Procedure: as §1, §3

C57BL/6 mice = assay: In vivo bioluminescence assay of lipid nanoparticles encapsulated with luciferase mRNA in mice; conditions: LNP with luciferase mRNA in mice; compound 20 vs. D1, compound 46 vs. D2
Procedure: as §1
The delivery effect and safety of nanoparticles encapsulated with luciferase mRNA (Trilink, L-7202) in mice were evaluated. The test mice were SPF-grade C57BL/6 mice, female, 6-8 weeks old, weighing 18-22 g, and were purchased from SPF (Beijing) Biotechnology Co., Ltd. All animals were acclimatized for more than 7 days prior to the experiment, and had free access to food and water during the experiment. The conditions include alternating light and dark for 12/12 h, the indoor temperature of 20-26° C. and the humidity of 40-70%. The mice were randomly grouped. The lipid nanoparticles encapsulated with luciferase mRNA prepared above were injected into mice by intravenous administration at a single dose of 0.5 mg/kg mRNA, and the mice were subjected to in vivo bioluminescence assay using a Small Animal In Vivo Imaging System (IVIS LUMINA III, purchased from PerkinElmer) at 6 h after administration. The assay was performed as follows: D-luciferin solution was prepared in saline at a concentration of 15 mg/mL, and each mouse was given the substrate by intraperitoneal injection. At ten minutes after administration of the substrate, the mice were anesthetized in an anesthesia chamber with isoflurane at a concentration of 2.5%. The anesthetized mice were placed in IVIS for fluorescence imaging, and data acquisition and analysis were performed on the concentrated distribution area of fluorescence.
The in vivo delivery efficiency of lipid nanoparticle carriers was expressed as the mean values of fluorescence intensity and total photon count in different animals within the same subject group, as shown in Table 5. Higher values of fluorescence intensity and total photon count indicate higher in vivo delivery efficiency of this mRNA fragment by lipid nanoparticles. The lipid nanoparticles containing the cationic lipids of the present disclosure have good in vivo delivery efficiency.

Compound | Encapsulation efficiency (%) [1] [%] | Particle size (nm) [3] [nm] | Particle size dispersity (PDI) [3] | Luciferase luminescence (RLU) [2] [RLU] | Cell viability (%) [4] [%] | in vivo delivery efficiency compared with the molecule without tetramethyl (C57BL/6 mice)
CCCCCCCCCOC(=O)C(C)(C)CCCCCC(CCCCCC(C)(C)C(=O)OCCCCCCCCC)OC(=O)CCCCCN(C)C [Compound 32] | 99.02 | 116.61 | 0.07 | 6.99E+06 | 96.25 | 
CCCCCCCCCSC(=O)C(C)(C)CCCCCC(CCCCCC(C)(C)C(=O)SCCCCCCCCC)OC(=O)CCCN(C)C [Compound 37] | 89.07 | 92.18 | 0.03 | 1.04E+07 | 97.48 | 
CCCCCCCCCOC(=O)C(C)(C)CCCCCC(CCCCCC(C)(C)C(=O)SCCCCCCCCC)OC(=O)CCCN(C)C (centres unmarked) [Compound 41] | 93.91 | 104.27 | 0.05 | 1.23E+07 | 104.91 | 
CCCCCCCCCOC(=O)C(C)(C)CCCCCC(CCCCCC(C)(C)C(=O)OCCCCCCCCC)OC(=O)CCCN(C)C [Compound 20] | 71.93 | 99.61 | 0.10 |  |  | significantly increased in vivo delivery efficiency

Further lines, with some results ahead:

Encapsulation efficiency (%) [1] [%] | Particle size (nm) [3] [nm] | Particle size dispersity (PDI) [3] | Compound | Luciferase luminescence (RLU) [2] [RLU] | Cell viability (%) [4] [%] | in vivo delivery efficiency compared with the molecule without tetramethyl (C57BL/6 mice)
83.29 | 118.19 | 0.07 | CCCCCCCCOC(=O)C(C)(C)CCCCCC(CCCCCC(C)(C)C(=O)OCCCCCCCC)OC(=O)C1CCN(C)CC1 [Compound 100] | 1.98E+06 | 104.67 | 
95.62 | 96.83 | 0.04 | CCCCC/C=C\C/C=C\CCCCCCCCC(CCCCCCCC/C=C\C/C=C\CCCCC)OC(=O)CCCN(C)C [DLin-MC3-DMA, reference compound] | 2.95E+06 | 97.84 | 

— patent US12162819B2, “Ionizable lipid compounds” (Beijing Jitai Pharmaceutical Technology Co., Ltd., priority 2022, dated 2024)
